The text below walks through data of patent publication US20080248008A1, “Inhibitors of Protein Kinase a Anchoring” (priority 2004, published 2008).

One assay addresses T1, RIIα (Mus musculus, UniProt P12367).
T1 construct: His tag; made in house; host or cells: E. coli BL21 (B121 [sic])
In words: Fluorescence polarization, dissociation constant for RII. It is filed as binding. Particulars: qualitative. Here is the method: Fluorescence Polarization. FITC-labeled peptides (SynPep, San Diego) that were used for fluorescence polarization studies included MEME3 (LEQYANQLADQIIKEATEK(5-Carboxyfluorescein)-CONH2) and MEME3 scrambled peptide (IEKELAQQYQNADAITLEK(5-Carboxyfluorescein)-CONH2). Peptides (0.5 nM for RI experiments and 1 nM for RII experiments) were suspended to working dilutions in phosphate-buffered saline containing 5 μg/μl BSA, pH 7.0. Increasing concentrations of recombinant bovine RI wt or recombinant murine RII were added to a PBS solution and mixed with each FITC-labeled peptide. Each sample was incubated for 2.5 hours. Fluorescence polarization was measured on a Beacon 2000 (Panvera, Madison, Wis.), following the manufacturer's instructions. Saturation binding curves were generated with PRISM graphing software (GraphPad, San Diego). Dissociation constants (Kd) were calculated from the nonlinear regression curve from averages of minimum three individual experiments.
Protein expression and purification. Human RI, Bovine RI and N-terminal deletions thereof or murine RII was expressed in E. coli B121 by IPTG induction. The RI containing pellet was incubated in lysis buffer (10 mM MOPS, pH 6.5, 100 mM NaCl, 10 μM DTT added protease inhibitors) and sonicated (Branson Sonifier 250) for 1 minute in three intervals at 0° C. […]
Background: Fluorescence polarisation rises when a labelled molecule tumbles more slowly, as on binding a larger partner.

The target of a further assay is T2, RII (Mus musculus, UniProt P12367).
T2 construct: His tag; made in house; host or cells: E. coli BL21 (B121 [sic])
T2 sequence (P12367 whole entry): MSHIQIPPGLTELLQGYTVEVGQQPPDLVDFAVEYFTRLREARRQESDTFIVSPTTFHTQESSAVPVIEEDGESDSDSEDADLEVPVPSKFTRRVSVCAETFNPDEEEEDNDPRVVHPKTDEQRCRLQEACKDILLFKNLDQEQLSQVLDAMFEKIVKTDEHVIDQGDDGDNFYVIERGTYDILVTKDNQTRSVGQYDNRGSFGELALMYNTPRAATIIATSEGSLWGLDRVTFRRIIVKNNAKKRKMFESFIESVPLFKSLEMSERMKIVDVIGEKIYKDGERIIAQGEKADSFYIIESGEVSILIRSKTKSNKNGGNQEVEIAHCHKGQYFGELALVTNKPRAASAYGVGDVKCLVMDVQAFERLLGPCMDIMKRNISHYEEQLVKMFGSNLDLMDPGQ
The assay is described as follows: R-overlay (solid-phase binding) of 32P-labelled RII on membrane-synthesized peptides. Also noted: species or system murine. Here is the method: (§1) Autospot Peptide Array. Peptide arrays were synthesized on cellulose paper by using an Autospot Robot ASP222 (ABiMED, Langenfeld, Germany) as described (Frank, R., 1992, Tetrahedron 48, 123-132) or Multipep automated peptide synthesizer (INTAVIS Bioanalytical Instruments AG, Koeln, Germany) as described (Frank, R., 1992, Tetrahedron 48, 123-132).
R-overlay. R-overlays were conducted as described, using ^32P-labeled recombinant murine RII (Hausken, Z. E., et al., 1998 in Protein Targeting Protocols, ed. Clegg, R. A. (Humana, Totowa, N.J.), Vol. 88, pp. 47-64) or recombinant bovine RI (A98S) or by cold RI-overlay where bound RIα was detected by Western blot. Cold RI-overlay was performed by incubating the membranes with 250 nM RI overnight at 4° C., then the membranes were washed five times in TBST for 5 min. Detection of RI was performed using an anti-RI rabbit polyclonal antibody (Santa Cruz) at a concentration of 0.2 μg/μl for 1 hour at 4° C. Then the membranes were washed five times for 5 minutes in PBS followed by incubation with HRP-conjugated anti-rabbit IgGs (1:5000) for 1 hour at 4° C. […]
(§2) Densitometric analysis. The densitometric analysis was performed using Scion Image (www.scioncorp.com) (Scion Coorperation, Mo., USA) or Quantity One version 4.5.0, (BioRad).

The next assay concerns the target T3, RI (A98S) (Bos taurus, UniProt P00514, A98S).
T3 construct: made in house; host or cells: E. coli BL21 (B121 [sic])
In words: R-overlay (solid-phase binding) of 32P-labelled RI on membrane-synthesized peptides. Also noted: species or system bovine. Here is the method: as §1
(§3) R-overlay. R-overlays were conducted as described, using ^32P-labeled recombinant murine RII (Hausken, Z. E., et al., 1998 in Protein Targeting Protocols, ed. Clegg, R. A. (Humana, Totowa, N.J.), Vol. 88, pp. 47-64) or recombinant bovine RI (A98S) or by cold RI-overlay where bound RIα was detected by Western blot. Cold RI-overlay was performed by incubating the membranes with 250 nM RI overnight at 4° C., then the membranes were washed five times in TBST for 5 min. Detection of RI was performed using an anti-RI rabbit polyclonal antibody (Santa Cruz) at a concentration of 0.2 μg/μl for 1 hour at 4° C. Then the membranes were washed five times for 5 minutes in PBS followed by incubation with HRP-conjugated anti-rabbit IgGs (1:5000) for 1 hour at 4° C. The membranes were washed in PBS as described above before detection by Supersignal West Dura Extended Duration Substrate (Pierce).
as §2

Assay [1] concerns N-terminal RIα deletion mutants. The assay is described as follows: R-overlay with N-terminal RIα deletion mutants. Particulars: compared with RIα. Type of assay: binding. How it is done:
as §3
(§4) Constructs and mutagenesis. […]
(§5) MEME3 and SM3 (scrambled negative control peptide) were cloned by preferred codon usage (Haas et al., 1996, Current Biol., 6:315-324) and with an N-terminal GFP-fusion. Lysate from transfected HEK293 cells (FIG. 10, left panel in A) and MEME3 synthesized on membrane (right panel in A) were analysed for R binding by RIα-^32P-overlay and RIIα-^32P overlay. […]

Assay [2] deals with T4, N-terminal RIα deletion mutants (Bos taurus, UniProt P00514, A98S).
T4 construct: made in house; host or cells: E. coli BL21 (B121 [sic])
T4 sequence (P00514 25-380 A98S): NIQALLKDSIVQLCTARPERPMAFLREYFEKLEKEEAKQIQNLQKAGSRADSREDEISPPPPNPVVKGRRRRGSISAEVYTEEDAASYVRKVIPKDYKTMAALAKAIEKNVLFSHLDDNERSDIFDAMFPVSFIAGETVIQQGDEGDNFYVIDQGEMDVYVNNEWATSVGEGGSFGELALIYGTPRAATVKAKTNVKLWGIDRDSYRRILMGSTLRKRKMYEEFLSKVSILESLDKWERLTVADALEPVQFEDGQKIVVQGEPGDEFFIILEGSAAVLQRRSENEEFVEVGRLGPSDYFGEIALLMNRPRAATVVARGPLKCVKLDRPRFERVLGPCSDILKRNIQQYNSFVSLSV
In words: R-overlay with N-terminal RIα deletion mutants. It is filed as binding. How it is done:
as §3, §4, §5

T3 sequence (P00514 whole entry A98S): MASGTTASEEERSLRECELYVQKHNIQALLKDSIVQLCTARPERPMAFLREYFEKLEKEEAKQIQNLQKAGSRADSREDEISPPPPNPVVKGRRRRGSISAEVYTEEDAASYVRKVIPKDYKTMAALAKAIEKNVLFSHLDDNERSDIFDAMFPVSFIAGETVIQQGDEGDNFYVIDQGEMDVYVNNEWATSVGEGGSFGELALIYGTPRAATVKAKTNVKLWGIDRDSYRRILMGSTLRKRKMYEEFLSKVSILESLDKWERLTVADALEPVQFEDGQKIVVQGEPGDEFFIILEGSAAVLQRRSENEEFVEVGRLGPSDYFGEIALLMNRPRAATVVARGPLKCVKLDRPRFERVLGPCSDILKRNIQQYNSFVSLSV
T1 sequence (P12367 whole entry): as the sequence (P12367 whole entry) above

With “IEKELAQQYQNADAITLE [SM3, scrambled MEME3 negative control peptide, reference compound]”, the “interaction with RII subunit” value in the assay with RIIα was “did not interact with either R subunit”.

In the case of `CC[C@H](C)[C@H](NC(=O)[C@H](CCC(N)=O)NC(=O)[C@H](CC(=O)O)NC(=O)[C@H](C)NC(=O)[C@H](CC(C)C)NC(=O)[C@H](CCC(N)=O)NC(=O)[C@H](CC(N)=O)NC(=O)[C@H](C)NC(=O)[C@H](Cc1ccc(O)cc1)NC(=O)[C@H](CCC(N)=O)NC(=O)[C@H](CCC(=O)O)NC(=O)[C@@H](N)CC(C)C)C(=O)N[C@H](C(=O)N[C@@H](CCCCN)C(=O)N[C@@H](CCC(=O)O)C(=O)N[C@@H](C)C(=O)N[C@H](C(=O)N[C@@H](CCC(=O)O)C(=O)N[C@@H](CCCCNC(=O)c1ccc2c(c1)C(=O)OC21c2ccc(O)cc2Oc2cc(O)ccc21)C(N)=O)[C@@H](C)O)[C@@H](C)CC` [MEME3], the “affinity for RII compared to PDSM” value on RII (densitometry of autoradiographs, lower) stood at 0.5 times. In addition, the “competition of RII binding to an RII specific binding sequence” value at RII (up to 100 μM peptide in solution) is listed as “not able to compete the RII binding”. Moreover, the “competition of RI-binding to membrane-bound MEME3” value at RI (A98S) (500 nM peptide in solution) is recorded as “competed the RI-binding”. Further, the “affinity for RI compared to that of PDSM” value at RI (A98S) (densitometry of autoradiographs, n=3, higher) is 1.9 times. Moreover, on RI (A98S) (peptides on membrane, qualitative), the “RI binding (RI-32P-overlay, autoradiography)” value was “bound with high affinity to RIα”. Further, in assay [1], the “binding to RIα (Δ1-11) and RIα (Δ1-15) (overlay)” value was “even higher affinity”. Besides, the “binding to RIα (Δ1-24) (overlay)” value in assay [2] is reported as “No binding”.
